Assay results: publication PMC5884652, “New antimicrobial peptide kills drug-resistant pathogens without detectable resistance” (Oncotarget, 2018)
pEC50: −log10 of the molar value. Like-named read-outs stand apart in the source and are kept apart here. Ends that are not written are not given here.

Key:
[1] = test system: Proteus vulgaris KCTC 2433; format: cell-based
Source text: (§1) The method for peptide synthesis has been described in detail previously. E. coli ATCC 25922 (LB media), P. aeruginosa ATCC 15692 (NB+0.5% NaCl media), Listeria monocytogenes ATCC 3710 (LB media), Staphylococcus epidermidis ATCC 12228 (LB media), and S. aureus ATCC 29213 (TSB media) were obtained from the American Type Culture Collection (Manassas, VA, USA). […] E. coli CCARM 1238 was received from the Culture Collection of Antibiotic Resistant Microbes at Seoul Women’s University, Korea. Drug-resistant P. aeruginosa 3543, 3904, 3547, and 4007 and S. aureus 3126, 0027, 5157, 1635, 4761, 5159, 3359, 2122, 1630, 1870, 3511, 5156, and 3518 were resistant strains isolated from patients with otitis media in a Chonnam National University’s hospital.
(§2) The antibacterial activities of AMPs (melittin, clavaspirin, and its analogs) and conventional antibiotic drugs (erythromycin, gentamicin, ampicillin, and piperacidin) were determined using microdilution assays. Bacterial cells were cultured at 37° C in appropriate culture media at pH 5.5 or pH 7.4 until collection during the mid-log phase and suspended in 10 mM sodium phosphate buffer (pH 5.5 or pH 7.4) supplemented with 10% culture medium. Thereafter, 2× serial dilutions of each peptide (0.25–128 μM) or antibiotic (0.25–256 μM) were added to sterile 96-well plates, and aliquots of cell suspension (5 × 10^5 colony forming units (cfu)/mL) were seeded into each well. The samples were then incubated at 37° C for 24 h. At the end of the incubation, the minimum inhibitory concentrations (MICs) of the peptides were determined using a VERSA Max microplate reader (Molecular Devices Co., Sunnyvale, CA, USA) at a wavelength of 600 nm. […] MIC values were calculated as the mean of 3 independent experiments conducted in triplicate.

[2] = test system: Salmonella typhimurium KCTC 1926; format: cell-based
Source text: as §1, §2

[3] = test system: HaCaT (human keratinocyte) cells; test: Cytotoxicity, MTT assay; format: cell-based; conditions: DMEM containing 10% FBS and 1% PS, 24 h, 37° C; for pEC50: read-out: EC50 (effective concentration in HaCaT cells)
Description: To examine the cytotoxic effects of the peptides, HaCaT (human keratinocyte) cells were cultured in Dulbecco’s modified Eagle’s medium (DMEM) supplemented with antibiotics (100 U/ml penicillin and 100 μg/ml streptomycin) and 10% fetal calf serum at 37° C in a humidified chamber under a 5% CO2 atmosphere. Growth inhibition was evaluated using 3-(4, 5-dimethylthizol-2-yl)-2, 5-diphenyltetrazolium bromide (MTT) assays to measure cell viability. After cells were seeded into a 96-well plate at a density of 2 × 10^4/well and incubated for 24 h, twofold serial dilutions of each peptide in DMEM were added to the wells, and the cells were incubated for an additional 24 h at 37° C. Thereafter, 10 μl of MTT (5 mg/ml) was added to each well, and the plate was incubated for 4 h. The supernatants were then removed, and 50 μl of DMSO was added to each well to dissolve any remaining precipitate. Finally, the absorbance at 570 nm was measured using a microtiter reader.

[4] = Aggregation assay (light scattering); format: physicochemical; conditions: 10 mM sodium phosphate buffer; for Self-aggregation: light scattering ex 400 nm / em 400 nm, 12 h, 37° C, mean of three experiments
Description: Light scattering assays were performed with clavaspirin and its analogue peptides using a Perkin-Elmer LS55 fluorometer. Peptides were dissolved in 10 mM sodium phosphate buffer (pH 5.5 or pH 7.4) and incubated for 12 h at 37° C. Light scattering was excited at 400 nm and the emission was scanned at 400 nm.

[5] = test system: E. coli CCARM1238; test: microbe, parasite or virus in culture; format: cell-based, Escherichia coli; conditions: pH 7.4 (II); 10 mM sodium phosphate buffer, 10% LB; 37° C, 24 h; mean of 3 experiments
Source text: The method for peptide synthesis has been described in detail previously. E. coli ATCC 25922 (LB media), P. aeruginosa ATCC 15692 (NB+0.5% NaCl media), Listeria monocytogenes ATCC 3710 (LB media), Staphylococcus epidermidis ATCC 12228 (LB media), and S. aureus ATCC 29213 (TSB media) were obtained from the American Type Culture Collection (Manassas, VA, USA). Bacillus subtilis KCTC 1998 (LB media), Salmonella typhimurium KCTC 1926 (NB media), and Proteus vulgaris KCTC 2433 (NB media) were obtained from the Korean Collection for Type Cultures (Jeollabuk-do, Korea). E. coli CCARM 1238 was received from the Culture Collection of Antibiotic Resistant Microbes at Seoul Women’s University, Korea. Drug-resistant P. aeruginosa 3543, 3904, 3547, and 4007 and S. aureus 3126, 0027, 5157, 1635, 4761, 5159, 3359, 2122, 1630, 1870, 3511, 5156, and 3518 were resistant strains isolated from patients with otitis media in a Chonnam National University’s hospital.
as §2

[6] = test system: S. aureus ATCC 29213; test: microbe, parasite or virus in culture
Description: To determine the MICs of CSP-4, a single colony of S. aureus ATCC 29213 was cultured at 37° C in tryptic soy broth, as well as daptomycin and linezolid, which served as commercial antibiotic positive controls. […] For each agent, the MIC was determined daily for 29 days at pH 5.5 and/or for 8 days at pH 7.4 using cells from wells containing half the MIC (1/2 MIC well). […] All MICs were determined in duplicate.

[7] = test system: S. aureus LTA; test: Peptide-LTA binding affinity assay (dansyl polymyxin B); conditions: LTA 9 µg, 2.5 μM dansyl polymyxin B, 5 mM HEPES buffer pH 7.4, peptide 0.4 to 4 μM
Description: Lipoteichoic acid (LTA) and lipopolysaccharide (LPS) binding affinity assays were performed using a Perkin-Elmer LS55 fluorometer (Waltham, MA, USA). S. aureus LTA and E. coli LPS (9 µg) were incubated with 2.5 μM dansyl-polymyxin B in 5 mM HEPES buffer for 5–10 min at pH 7.4. The CSP-4 peptide was added in 0.4 μM increments from 0.4 to 4 μM. The increase in fluorescence intensity was assessed using a spectrofluorometer at an excitation wavelength of 340 nm and an emission wavelength of 482 nm (Perkin-Elmer LS55).

[8] = pH 5.5 (I), 10 mM sodium phosphate buffer, 10% LB, 37° C, 24 h, mean of 3 experiments
[9] = pH 7.4 (II), 10 mM sodium phosphate buffer, 10% LB, 37° C, 24 h, mean of 3 experiments

| Substance | MIC, P. vulgaris ([1]; KCTC 2433, 24 h, pH 5.5) [µM] | MIC, P. vulgaris ([1]; KCTC 2433, 24 h, pH 7.4) [µM] | MIC, S. typhimurium ([2]; KCTC 1926, 24 h, pH 5.5) [µM] | MIC, S. typhimurium ([2]; KCTC 1926, 24 h, pH 7.4) [µM] | EC10 (effective concentration in HaCaT cells) [3] | pEC50 [3] | Self-aggregation ([4]; pH 7.4) | MIC, P. vulgaris [1, 8] [µM] | MIC, P. vulgaris [1, 9] [µM] | MIC, S. typhimurium [2, 8] [µM] | MIC, S. typhimurium [2, 9] [µM] | MIC [5] [µM] | MIC after 29 passages ([6]; after exposure for 29 passages) [µM] | Increase of MIC ([6]; after exposure for 29 passages, pH not given) | Induction of drug resistance ([6]; exposure for up to 29 passages) | Self-aggregation ([4]; pH 5.5) | Effect of varying the pH on aggregation ([4]; pH 5.5 vs pH 7.4, light scattering) | Binding to LTA (fluorescence of dansyl polymyxin B) [7] |
| --- | --- | --- | --- | --- | --- | --- | --- | --- | --- | --- | --- | --- | --- | --- | --- | --- | --- | --- |
| FKRFIGSVKHGIGHLVHHIGVAL-NH2 [CSP-3] | 4 | 8 | 64 | 4 | 84 | 3.73 | aggregation increased | – | – | – | – | – | – | – | – | – | – | – |
| FLRFIGSVKHGKGHLVHHIGVAL-NH2 [CSP-4] | – | – | – | – | > 400 | < 3.40 | very little self-aggregation | 4 | 8 | 64 | 4 | 2 | 16 | approximately 2 × | did not induce drug resistance | very little self-aggregation | not affected | dose-dependent increase in fluorescence intensity |
